Marks after values point to notes of the source that are not given here.
Key:
[1] = biological target: Syk (356-635 amino acids) catalytic domain (Homo sapiens (Human), UniProt P43405); assay: Inhibition of enzymatic Syk kinase activity (radiometric); format: biochemical; details: read-out: IC50 Syk
Outline: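 Radiometric filter-binding format: 32P transfer from γ-32P-ATP onto pG4T, scintillation-counted after acid washes of P81 paper. Syk kinase domain (356-635), 0.035–7.5 ng per reaction, was exposed to compound for 30 minutes at room temperature before a 10-minute, 30° C. reaction with ATP (100 μM stock). Inhibition derived from counts with versus without compound.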

[2] = tested on: Collagen Induced Arthritis (CIA) in female Lewis rats; assay: In vivo chronic study: Collagen Induced Arthritis (CIA); parameters: species or system rat; details: 2 × 30 mg/Kg
Excerpt: Collagen Induced Arthritis (CIA) is a well characterized model of human rheumatoid arthritis (RA) that can be induced in susceptible animals following immunization with type II collagen (cII) in Freund's adjuvant. […] Pathophysiology of CIA consists of T cell component, as evidenced by increased infiltration of T-cells in joint synovium and also, by attenuation of CIA in T-cell deficient mice. CIA development involves B cell component too, as is evidenced by circulating cII antibody in disease animals and also, failure to develop the disease in xid mice/B cell deficient mice/CXCR5 null mice. […] See, Pine, “Inflammation and bone erosion are suppressed in models of rheumatoid arthritis following treatment with a novel Syk inhibitor”, Clin. Immunol., 2007, 124(3):244-57; Xiong cha, “Suppression of the onset and progression of collagen-induced arthritis in rats by QFGJS, a preparation from an anti-arthritic Chinese herbal formula”, J. Ethnopharmacology (2007) 110:39-48; and Stolina, “The evolving systemic and local biomarker milieu at different stages of disease progression in rat collagen induced arthritis”, Biomarkers (2008) 13(7-8):692-712, which are herein incorporated by reference.
Female Lewis rats (8 per group, 6-8 weeks old) were immunized on day 1 with type II collagen (Immunization grade Bovine type II; Chondrex; Cat #20021) emulsified with Complete Freund's Adjuvant (Sigma; Cat# F5881) at a final concentration of 1.2 mg/mL). For the initial immunization, the animals were injected at the base of the tail with 300 μg of the cII (0.25 mL/rat). A booster injection of the same type II collagen emulsified with Incomplete Freund's Adjuvant (Sigma, Cat #F5506) (0.25 mL/rat) was given to the animals on day 8 at the base of the tail (100 μg). The final cII concentration in the booster was […].
Animals with an arthritic score of ≥1 were grouped and dosing with test compound (30 mg/kg bid) or methotrexate (0.5 mg/kg) started between about day 12 to day 14, with daily dosing of their respective compounds continuing for 10 days.
Edema: Paw volumes are measured by Plethysmometry for the animals before induction of CIA (Basal readings) and on Day 1, 3, 6 and 9 of dosing period. Both hind paw volumes were measured and edema was calculated by subtracting from the basal mean.
Arthritic score: Animals were scored for the symptoms of arthritis every day starting from Day of onset of disease till the end of the study. Both the hind paws were scored and the total scores were averaged and compared with control. The scoring pattern was as follows:
The percent inhibition of Edema was calculated with respect to control by the formula: […]
The percent inhibition of Arthritic score was calculated with respect to control by the formula: […]
Means of different groups were compared with control using one way ANOVA followed by Dunnett's test. Significance is represented as follows.

Structure (SMILES)	IC50 [1] [µM]	Percent inhibition of Edema (Day 9 of dosing) [2]	Percent inhibition of Arthritic score (Day 10 of dosing) [2]
Cl.O=c1[nH]ncc2nc(-c3ccccc3)nc(Nc3ccc(CN4CCNCC4)cc3)c12 [Example 7, 2-phenyl-4-(4-(piperazin-1-ylmethyl)phenylamino)pyrimido[4,5-d]pyridazin-5(6H)-one hydrochloride]	< 0.05	–	–
N#CCC1CCN(c2nc(Nc3ccc(N4CCC(O)CC4)cc3)c3c(=O)[nH]ncc3n2)CC1 [Example 189, 2-(1-(4-((4-(4-hydroxypiperidin-1-yl)phenyl)amino)-5-oxo-5,6-dihydropyrimido[4,5-d]pyridazin-2-yl)piperidin-4-yl)acetonitrile]	< 0.01	90***	94***
N#CCC1CCN(c2nc(Nc3ccc(N4CCN(CCO)CC4)cc3)c3c(=O)[nH]ncc3n2)CC1 [Example 191, 2-(1-(4-((4-(4-(2-hydroxyethyl)piperazin-1-yl)phenyl)amino)-5-oxo-5,6-dihydropyrimido[4,5-d]pyridazin-2-yl)piperidin-4-yl)acetonitrile]	< 0.01	90***	100***

More lines, main results first:

IC50 [1] [µM]	Structure (SMILES)	Percent inhibition of Edema (Day 9 of dosing) [2]	Percent inhibition of Arthritic score (Day 10 of dosing) [2]
< 0.05	O=C(O)C1CCN(c2ccc(Nc3nc(-c4ccccc4)nc4cn[nH]c(=O)c34)cc2)CC1 [Example 13, 1-(4-(5-oxo-2-phenyl-5,6-dihydropyrimido[4,5-d]pyridazin-4-ylamino)phenyl)piperidine-4-carboxylic acid]	–	–
< 0.05	O=C(O)C1CC12CCN(c1ccc(Nc3nc(-c4ccccc4)nc4cn[nH]c(=O)c34)cc1)CC2 (centres unmarked) [Example 19, 6-(4-(5-oxo-2-phenyl-5,6-dihydropyrimido[4,5-d]pyridazin-4-ylamino)phenyl)-6-azaspiro[2.5]octane-1-carboxylic acid]	5**	20*
< 0.01	O=C(O)C1CC12CCN(c1ccc(Nc3nc(N4CCCCCC4)nc4cn[nH]c(=O)c34)cc1)CC2 (centres unmarked) [Example 62, 6-(4-((2-(azepan-1-yl)-5-oxo-5,6-dihydropyrimido[4,5-d]pyridazin-4-yl)amino)phenyl)-6-azaspiro[2.5]octane-1-carboxylic acid]	69***	81***
< 0.01	O=C(O)CC1CCN(c2ccc(Nc3nc(N4CCCCCC4)nc4cn[nH]c(=O)c34)cn2)CC1 [Example 108, 2-(1-(5-((2-(azepan-1-yl)-5-oxo-5,6-dihydropyrimido[4,5-d]pyridazin-4-yl)amino)pyridin-2-yl)piperidin-4-yl) acetic acid]	42***	53***

— patent publication US10183944B2 (Asana Biosciences, LLC, priority 2011, dated 2019)
